Measured values from patent publication US10342806B2, “Hormone treatment for age-related hearing loss-presbycusis” (priority 2014, dated 2019).

Key:
NKCC1 ubiquitination = assay: Immunoprecipitation (autoubiquitination assay) of NKCC1 in HT-29 cells; type: cell-based, human; conditions: MG132 20 μM 2 h, then ALD 1 μM and/or GSK 650394 50 μM for 24 h
Description: Immunoprecipitation (autoubiquitination assay) and western blot analysis. An autoubiquitination assay was followed (Garg, et al., Effect of the Na—K-2Cl cotransporter NKCC1 on systemic blood pressure and smooth muscle tone. Am J Physiol Heart Circ Physiol 292: H2100-H2105, 2007). Cell extracts were prepared in a modified radioimmunoprecipitation assay 1 (RIPA) buffer, containing the following (in mM): 50 Tris·HCl at pH 7.4, 150 NaCl, 1 EDTA, and 1 dithiothreitol with 1% Nonidet P-40, 0.1% SDS; in a 1:200-diluted protease inhibitor cocktail (Sigma), containing the following (in mM): 1 PMSF, 10 NEM, and 0.1 iodoacetamide Immunoprecipitations were accomplished using a rabbit polyclonal anti-NKCC1 antibody (Cell Signaling). Antibody was bound to lysate with endogenous NKCC1, and then beads were added. Bound proteins were eluted in 1× SDS sample buffer, fractionated on an SDS-polyacrylamide gel, transferred onto a […] membrane (GE Healthcare, Piscataway, N.J.), and immunoblotted with anti-ubiquitin antibody visualized using enhanced chemiluminescence detection reagents (Pears, Shelton Conn.) according to the manufacturer's instructions.
Immunoblotting with anti-ubiquitin antibody was performed as described above.
ALD decreases the endogenous ubiquitination of NKCC1 and inhibition of SGK1 activation blocks this downregulation. […]

NKCC1 = assay: 86Rb uptake in HT-29 cells; type: cell-based, human; conditions: HT-29 cells, 2, 4, 8, and 12 h after ALD
Description: Cell culture and buffers. […] Arch Oral Biol 52: 411-416, 2007). […] J Cell Sci 112: […], 1999, Epple, et al., Early aldosterone effect in distal colon by transcriptional regulation of ENaC subunits. Am J Physiol Gastrointest Liver Physiol 278: […] Am J Physiol Cell Physiol 305: […]-[…], 2013). HT-29 cells were grown in DMEM media (Invitrogen, Carlsbad Calif.) with 10% FBS and antibiotics. Cells were grown in a humidified 95%/5% CO2 incubator at 37° C. Experiments were performed at 70-80% confluence. ^86Rb uptake. Similar to previous studies of NKCC1 activity (Gagnon & Delpire, Molecular determinants of hyperosmotically activated NKCC1-mediated K_/K_exchange. J Physiol 588: 3385-3396, 2010), cells were plated on six-well dishes and incubated at 37° C./5% CO2 until confluent. For the uptake, cells were first washed twice with 1 ml of isosmotic saline (140 mM NaCl, 5 mM KCl, 2 mM CaCl2, 0.8 mM MgSO4, 5 mM glucose, 5 mM HEPES buffered to pH 7.4, and 300.5 mosM). […] After a 20-min uptake, the radioactive solution was aspirated, and the cells were washed three times with 1 ml of ice-cold solution, lysed for 1 h with 500 μl of 0.25 N NaOH, and neutralized with 250 μl of glacial acetic acid. ^86Rb tracer activity was measured by using 150 μl of lysate for γ-scintillation counting. […]

SMILES: C[C@]12CCC(=O)C=C1CC[C@@H]1[C@@H]2[C@@H](O)C[C@]2(C=O)[C@@H](C(=O)CO)CC[C@@H]12 [ALD, aldosterone]
- endogenous ubiquitinated NKCC1 (NKCC1 ubiquitination): significantly reduced
- NKCC1 protein activity (86Rb uptake) (NKCC1): upregulated NKCC1 protein activity
